Source: patent US11632953B2, “Method for controlling hematophagous or sap-feeding arthropods” (Board of Supervisors of Louisiana State University and …, priority 2016, dated 2023)
Like-named read-outs stand apart in the source and are kept apart here.

How the values were obtained:
[1] = target: AeKir1 (Aedes aegypti, UniProt L0EQS9); assay: thallium (Tl+) flux assay; type: cell-based; details: means (n = 3); read-out: IC50 μM (95% Cl)
[2] = test system: Ae. aegypti; assay: in vivo diuresis assay; parameters: species or system Aedes aegypti; details: topical, 1.7 μg/mg mosquito
Method: The K^+-PBS contained the following (in mM): 92.2 NaCl, 47.5 KCl, 10 Na2HPO4, and 2 KH2PO4 (pH 7.5). Each treatment group of 5 mosquitoes was transferred into a separate graduated, packed-cell volume tube (MidSci, St. Louis, Mo.) and held for 1 h at 28° C. The volume excreted by the mosquitoes was measured visually via the graduated column at the bottom of the tube. At least 8 replicates (5 mosquitoes per replicate) were performed for each treatment.

[3] = test system: isolated tick salivary gland; assay: fluid secretion (salivation) in the isolated tick salivary gland, modified Ramsay assay; parameters: species or system Amblyomma americanum; details: isolated tick salivary gland
[4] = target: Kir1.1 (Homo sapiens (Human), UniProt P48048); assay: thallium (Tl+) flux assay; type: cell-based, mammalian
[5] = test system: isolated tick salivary gland; assay: ion secretion in saliva of the isolated tick salivary gland; parameters: species or system Amblyomma americanum
[6] = target: hKir2.1 (Homo sapiens (Human), UniProt P63252); assay: thallium (Tl+) flux assay; type: cell-based
[7] = target: Kir6.2/SUR1 (Homo sapiens (Human), UniProt Q09428+Q14654); assay: thallium (Tl+) flux assay; type: cell-based, mammalian
Method: (§1) The thallium flux assay is an in vitro method of measuring conductance through a potassium ion channel. Potassium channels are also permeable to thallium ions. The modulation of a K^+ channel will thus increase or decrease thallium ion flow through the channel and thus, alter the observed fluorescence of a thallium-specific indicator dye.
(§2) Stably transfected T-Rex-HEK-293-AnKir1 cells were cultured overnight in 384-well plates in media containing DMEM, 10% dialyzed FBS, and 1 μg/mL tetracycline to induce channel expression. The next day the cell culture medium was replaced with a dye-loading solution containing assay buffer (Hanks Balanced Salt Solution with 20 mM HEPES, pH 7.3), 0.01% (w/v) Pluronic F-127 (Life Technologies, Carlsbad, Calif.), and 1.2 μM of the thallium-sensitive dye Thallos-AM (TEFlabs, Austin, Tex.). After 1 hr incubation at room temperature, the dye-loading solution was washed from the plates and replaced with 20 μL/well of assay buffer. […] To ensure the small-molecule vehicle DMSO had no direct effect on AnKir1-dependent Tl^+ flux, the assay's tolerance to different doses of DMSO was evaluated. The robustness and reproducibility of the assay was determined by comparing Tl^+ flux through tetracycline-induced and tetracycline-free cells. The Z′ value was calculated as:
(§3) Z′=1−(3SDp+3SDn)/|meanp+meann| where SD is standard deviation, and p and n are control and uninduced flux values, respectively. […] Half-inhibition concentration (IC50) values were calculated from fits using a four parameter logistic equation. […]
(§4) Tl^+ flux data were analyzed using Excel (Microsoft Corp, Redmond, Wash.) with XLfit add-in (IDBS, Guildford, Surrey, UK), OriginPro (Origin Lab, Northampton, Mass.), and GraphPad Prism (GraphPad Software, San Diego, Calif., USA) software. […] The slope of the fluorescence increase beginning 5 s after Tl^+ addition and ending 15 s after Tl^+ addition was calculated.

[8] = target: Kir4.1 (Homo sapiens (Human), UniProt P78508); assay: thallium (Tl+) flux assay; type: cell-based, mammalian; details: means (n = 3); read-out: IC50 μM (95% Cl)
Method: as §1, §2, §3, §4

[9] = test system: An. gambiae; assay: mosquito fecundity, eggs laid; type: in vivo, Anopheles gambiae; details: 72 h post blood feeding; VU041 ~1 μg/mg, VU937 ~10 μg/mg
Method: Briefly, adult female mosquitoes were given access to an anesthetized mouse for 60 min. […] After treatment, individual female mosquitoes were transferred to Drosophila vials (Fisher Scientific, Pittsburgh, OA) containing 2 mL of water. The total number of eggs was counted 72 hours after each mosquito was transferred into a vial. Any mosquitoes that died during this 72-hour period were excluded from the analysis. All assays were performed in an environmental chamber that was maintained at 27° C. and 75% relative humidity; mosquitoes were given access to 10% sucrose solution ad libitum. At least 25 female mosquitoes were used per replicate for each treatment group; each treatment was repeated on three separate broods, giving a total number of individuals from 75-113 for each group.

[10] = test system: Ae. aegypti; assay: mosquito fecundity, eggs laid; type: in vivo, Aedes aegypti; details: 72 h post blood feeding; 3.4 μg/mg mosquito
Method: The mosquitoes were returned to rearing conditions for 24 h, after which they were transferred to individual egg-laying glass tubes 21 mm×70 mm (Fisher Scientific, Pittsburgh, Pa.) with a piece of coffee filter ([…] USA, Clearwater, Fla.) cut to fit the bottom of the tube. The filter was wetted with 150 μl of dH2O, and the open end of the tube was plugged with a cotton ball. The mosquitoes in their individual egg laying tubes were returned to rearing conditions for an additional 48 h, and the number of eggs laid was counted. Any mosquitoes that died during the 72 h period after blood feeding were excluded from the analysis.

[11] = means (n = 3), read-out: IC50 μM (95% Cl)

Kir6.2/SUR1, sequence (Q14654 whole entry): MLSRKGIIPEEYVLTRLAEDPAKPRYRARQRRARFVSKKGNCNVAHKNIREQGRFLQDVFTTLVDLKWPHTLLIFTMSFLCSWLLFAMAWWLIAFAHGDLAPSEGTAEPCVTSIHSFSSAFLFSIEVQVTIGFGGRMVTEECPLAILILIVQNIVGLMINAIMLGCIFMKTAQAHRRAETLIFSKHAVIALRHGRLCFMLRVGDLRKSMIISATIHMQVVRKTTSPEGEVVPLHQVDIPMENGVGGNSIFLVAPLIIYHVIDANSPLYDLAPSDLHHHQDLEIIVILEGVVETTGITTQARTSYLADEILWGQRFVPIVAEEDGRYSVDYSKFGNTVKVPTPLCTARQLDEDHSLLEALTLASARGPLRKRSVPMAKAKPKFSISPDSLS
Kir6.2/SUR1, sequence (Q09428 whole entry): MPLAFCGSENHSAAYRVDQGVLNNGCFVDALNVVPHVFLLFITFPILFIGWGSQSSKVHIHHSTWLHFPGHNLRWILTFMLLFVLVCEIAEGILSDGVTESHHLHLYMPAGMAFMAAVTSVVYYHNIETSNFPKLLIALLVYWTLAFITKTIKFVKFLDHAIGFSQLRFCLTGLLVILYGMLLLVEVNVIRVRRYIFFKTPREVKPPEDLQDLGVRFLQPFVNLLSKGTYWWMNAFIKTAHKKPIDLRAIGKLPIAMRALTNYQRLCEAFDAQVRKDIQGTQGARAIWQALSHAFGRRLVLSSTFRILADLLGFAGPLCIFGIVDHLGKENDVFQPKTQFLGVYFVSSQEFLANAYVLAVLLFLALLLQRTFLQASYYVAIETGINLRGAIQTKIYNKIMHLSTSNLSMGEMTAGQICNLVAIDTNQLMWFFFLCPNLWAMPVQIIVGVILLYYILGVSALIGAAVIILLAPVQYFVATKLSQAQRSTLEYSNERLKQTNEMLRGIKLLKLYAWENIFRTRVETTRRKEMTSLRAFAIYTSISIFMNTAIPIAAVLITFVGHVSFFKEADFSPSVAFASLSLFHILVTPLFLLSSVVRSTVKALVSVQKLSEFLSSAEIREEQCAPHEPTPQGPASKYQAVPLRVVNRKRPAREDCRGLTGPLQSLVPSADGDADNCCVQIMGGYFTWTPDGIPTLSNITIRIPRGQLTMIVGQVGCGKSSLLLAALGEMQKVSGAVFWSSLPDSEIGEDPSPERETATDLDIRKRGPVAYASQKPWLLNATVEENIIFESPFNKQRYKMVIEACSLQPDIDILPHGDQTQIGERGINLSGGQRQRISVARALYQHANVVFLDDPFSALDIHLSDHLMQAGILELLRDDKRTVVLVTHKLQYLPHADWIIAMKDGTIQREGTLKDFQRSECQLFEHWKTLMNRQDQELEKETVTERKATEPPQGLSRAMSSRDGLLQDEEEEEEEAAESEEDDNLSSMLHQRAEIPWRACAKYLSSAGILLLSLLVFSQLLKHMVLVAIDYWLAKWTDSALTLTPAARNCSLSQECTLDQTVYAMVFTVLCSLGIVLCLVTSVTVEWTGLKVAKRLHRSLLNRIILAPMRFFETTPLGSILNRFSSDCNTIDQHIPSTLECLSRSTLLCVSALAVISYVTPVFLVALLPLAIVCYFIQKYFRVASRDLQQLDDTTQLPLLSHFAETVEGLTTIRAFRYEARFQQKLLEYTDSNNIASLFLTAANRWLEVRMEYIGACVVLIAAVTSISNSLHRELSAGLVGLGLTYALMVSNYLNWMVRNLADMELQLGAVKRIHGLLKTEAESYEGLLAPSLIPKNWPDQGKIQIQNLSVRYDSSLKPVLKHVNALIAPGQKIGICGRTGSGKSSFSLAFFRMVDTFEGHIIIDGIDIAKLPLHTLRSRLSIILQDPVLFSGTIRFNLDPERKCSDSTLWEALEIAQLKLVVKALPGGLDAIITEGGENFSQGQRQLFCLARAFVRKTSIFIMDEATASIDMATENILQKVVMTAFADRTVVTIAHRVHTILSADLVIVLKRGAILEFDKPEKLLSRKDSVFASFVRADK
Kir1.1, sequence (P48048 whole entry): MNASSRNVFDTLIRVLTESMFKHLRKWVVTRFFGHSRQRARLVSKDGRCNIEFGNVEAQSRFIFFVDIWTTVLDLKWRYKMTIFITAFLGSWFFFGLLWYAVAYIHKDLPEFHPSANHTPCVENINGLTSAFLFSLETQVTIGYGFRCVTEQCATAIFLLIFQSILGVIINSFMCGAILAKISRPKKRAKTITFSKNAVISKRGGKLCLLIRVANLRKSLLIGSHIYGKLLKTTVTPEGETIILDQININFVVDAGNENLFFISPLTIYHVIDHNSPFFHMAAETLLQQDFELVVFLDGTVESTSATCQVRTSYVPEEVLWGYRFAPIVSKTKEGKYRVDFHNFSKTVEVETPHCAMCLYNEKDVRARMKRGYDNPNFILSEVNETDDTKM
hKir2.1, sequence (P63252 whole entry): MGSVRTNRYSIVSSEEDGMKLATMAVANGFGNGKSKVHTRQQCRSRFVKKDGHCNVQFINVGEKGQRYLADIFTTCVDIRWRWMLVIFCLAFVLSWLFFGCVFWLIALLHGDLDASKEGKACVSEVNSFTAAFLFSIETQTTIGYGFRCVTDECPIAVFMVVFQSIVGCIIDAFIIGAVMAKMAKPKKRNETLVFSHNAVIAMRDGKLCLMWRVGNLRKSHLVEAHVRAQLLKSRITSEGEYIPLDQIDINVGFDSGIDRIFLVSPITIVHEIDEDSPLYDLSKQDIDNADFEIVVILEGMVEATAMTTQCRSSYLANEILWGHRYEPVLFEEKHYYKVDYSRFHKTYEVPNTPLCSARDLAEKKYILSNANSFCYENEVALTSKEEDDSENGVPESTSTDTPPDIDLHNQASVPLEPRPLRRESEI
AeKir1, sequence (L0EQS9 1-486): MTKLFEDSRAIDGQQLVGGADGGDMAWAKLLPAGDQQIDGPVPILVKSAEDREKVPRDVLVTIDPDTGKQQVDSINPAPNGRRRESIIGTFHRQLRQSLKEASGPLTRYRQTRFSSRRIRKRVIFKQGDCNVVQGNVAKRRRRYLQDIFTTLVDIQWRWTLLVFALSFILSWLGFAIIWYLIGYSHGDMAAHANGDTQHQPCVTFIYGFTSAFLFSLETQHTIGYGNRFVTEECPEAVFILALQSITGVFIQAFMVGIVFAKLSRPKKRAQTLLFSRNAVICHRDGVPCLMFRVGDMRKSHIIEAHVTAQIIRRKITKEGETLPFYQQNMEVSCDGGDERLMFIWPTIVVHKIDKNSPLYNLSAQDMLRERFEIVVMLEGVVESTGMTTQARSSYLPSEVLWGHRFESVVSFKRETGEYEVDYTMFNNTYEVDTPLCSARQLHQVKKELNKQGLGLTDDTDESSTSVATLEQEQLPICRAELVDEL
Kir4.1, sequence (P78508 whole entry): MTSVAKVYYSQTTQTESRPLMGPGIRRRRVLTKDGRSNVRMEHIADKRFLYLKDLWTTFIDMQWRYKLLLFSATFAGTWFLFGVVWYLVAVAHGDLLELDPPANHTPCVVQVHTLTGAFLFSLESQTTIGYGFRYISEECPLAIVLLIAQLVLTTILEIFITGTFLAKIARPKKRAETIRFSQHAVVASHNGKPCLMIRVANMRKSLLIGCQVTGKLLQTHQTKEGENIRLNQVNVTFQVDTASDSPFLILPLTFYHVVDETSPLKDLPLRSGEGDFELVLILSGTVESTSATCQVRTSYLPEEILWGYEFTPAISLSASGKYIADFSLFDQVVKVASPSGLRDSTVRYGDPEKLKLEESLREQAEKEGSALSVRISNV

O=C(Cn1nc(C(F)(F)F)c2c1CCCC2)N1CCCc2ccccc21 [VU041, 1-(3,4-dihydroquinolin-1(2H)-yl)-2-(3-(trifluoromethyl)-4,5,6,7-tetrahydro-1H-indazol-1-yl)ethan-1-one]
IC50 [1]: 1.7 µM
lowering of diuretic capacity compared to controls [2]: ~51%
reduction of salivary output / saliva secretion compared to control [3]: approximately 60%
inhibition at 30 µM ([4]; concentration of 30 μM): < 10%
IC50 [4, 11]: > 30 µM
K+ and Na+ ion secretion rates in salivary droplets [5]: significantly reduced
IC50 ([6]; SAR libraries, read-out: hKir2.1 IC50): 11.3 µM
IC50 ([6]; means (n = 3), selectivity panel, read-out: IC50 μM (95% Cl)): 12.7 µM
inhibition at 30 µM ([7]; concentration of 30 μM): < 10%
IC50 [7, 11]: > 30 µM
IC50 [8]: > 30 µM
median number of eggs laid per mosquito [9]: significantly lower median number of eggs per mosquito
median number of eggs laid per mosquito [10]: significantly lower median number of eggs per mosquito
